The text below walks through data of patent US7750036B2 (SB Pharmco Puerto Rico Inc., priority 2004, dated 2010).

For data set [1] the following is noted: cited from earlier work.
The next data set in a line: physchem. To be noted: pH 7.1, aqueous buffer.

SMILES strings stand for the structures. Values after ≈ are worked out from the molar mass of the structure shown. Where two headings read alike, the source gives them in different places. A value given as a limit tells only on which side of the number the result lay.

On to `COc1ccccc1OCCNCC(O)COc1cccc2[nH]c3ccccc3c12` (racemic) [Carvedilol], for which the results for the solubility (in data set [1] (above a pH of 9.0); in the data set “physchem”) were < 1 µg/mL and 20 to 30 µg/mL (≈ 49.2 to 73.8 µM), respectively. Moreover, the saturation solubility entry in data set [1] (pH=5, room temperature) is reported as “about 100 μg/mL”; in data set [1] (pH=7, room temperature), “about 23 μg/mL”.

For `COc1ccccc1OCCNCC(O)COc1cccc2[nH]c3ccccc3c12.Cl` (centres unmarked) [hydrochloride salt of carvedilol], the “solubility of salt generated in situ” value in data set [1] (acidic medium which simulates gastric fluid) was “less soluble”.

The term solubility denotes the concentration that dissolves in the medium under given conditions.
